These results are taken from patent US12226384B2, “Peramivir solution type inhalant and preparation method therefor” (priority 2019, dated 2025).

Series [1] in a line: Equilibrium solubility of peramivir in saline solutions of different pH. The format is physicochemical. The arrangement: unit not given here. Particulars: 25° C. As to the method:
An excess amount of bulk peramivir was drawn and placed into a 25 ml volumetric flask, and 0.7% salt solution was applied to bring the volume to scale; the diluted solution was placed on a shaker and shaken for 24 h (25° C., 75 rpm), and then dilute hydrochloric acid (5%, V/V) was applied to regulate the pH to 4, 4.5, 5.0, and 5.5, respectively; the pH-regulated solutions were placed for another 48 h, and then filtered with a 0.45 μm filter membrane; the filtrates were diluted 250-fold with deionized water; the peramivir contents in the samples were determined by the HPLC method in peramivir standard.

The conditions of series [2]: at respective timing.
Description: Experiment Method: 15 SD male rats were drawn to be randomly assigned into 3 groups, 5 rats in each group, and peramivir sodium chloride injection (Lot No.: 3139262, Guangzhou Nanxin Pharmaceutical Co., Ltd.) was administered via intravenous injection at a dose of 10 mg/kg. 0.20 ml blood was collected from orbital venous plexus at 5 min, 1 h, and 3 h after dosing to the rats, respectively; and then the rats were lethally anesthetized to harvest the lung tissues (including trachea). After being anticoagulated by heparin sodium, the whole blood was centrifuged (1000 rpm, 5 min) to harvest the plasma; the lung tissues were rinsed and weighed; the plasma and lung tissues were placed under −20° C. until used for testing.
The rats were lethally anesthetized at 5 min, 1 h, and 3 h after administration, respectively, with their weights weighed and recorded; then, they were exercised to remove lung tissues (including trachea); the lung tissues were rinsed with saline solution; the residual liquid was sucked dry with filter paper; the lung tissues with the residual liquid were placed in an EP tube, weighed with deduction of the weight of the EP tube the weighed weight was recorded; finally, the lung tissues were placed in a −20° C. refrigerator for storage. […]
Peramivir standard solutions with concentrations of 0.5, 1, 5, 10, 50, 100, 200 μg/mL, respectively, were formulated using 1 mg/mL mother solution according to the gradient dilution method. […] The intra-day lung tissue drug concentrations were calculated according to standard protocol. […]
For series [3] the following is noted: cited from earlier work.

Read-outs that look alike come from different tables or passages of the source.

As for `CCC(CC)[C@H](NC(C)=O)[C@@H]1[C@H](O)[C@@H](C(=O)O)C[C@H]1NC(=N)N` [Peramivir, (−)-(1S, 2S, 3R, 4R)-2-hydroxy-3-[(1S)-1-acetamido-2-ethyl]butyl-4-guanidinocyclopenta-1-carbo xylic acid], the “Equilibrium Solubility of Peramivir in Saline Solutions” value in series [1] (pH = 4.0, 0.7% salt solution) is recorded as 33.93 ± 0.51; in series [1] (pH = 4.5, 0.7% salt solution), 26.53 ± 0.14; in series [1] (pH = 5.0, 0.7% salt solution) it was 22.84 ± 0.39; in series [1] (pH = 5.5, 0.7% salt solution), 22.04 ± 0.21; in series [1] (pH was not regulated with 0.7% salt solution (pH = 6.86)), 21.48 ± 0.31. The “lung tissue concentration, aerosol inhalation relative to intravenous administration” value in series [2] (aerosol 10 mg/kg vs intravenous 10 mg/kg) is on record as 2.02˜41.58 times; in series [2] (aerosol low dose 2.5 mg/kg vs intravenous 10 mg/kg), 1.07˜4.58 times; in series [2] (aerosol medium dose 5 mg/kg vs intravenous 10 mg/kg), 1.58˜5.31 times. The “stability of peramivir APIs” value in series [3] (48 h at 100° C.) is recorded as “stable”; in series [3] (acidic conditions), “unstable”; in series [3] (alkaline and neutral environments), “good stability”; in series [3] (light irradiation for 10 days), “good stability”.
